Measurements as given in PubChem BioAssay AID330 (DTP/NCI, 2004).
Several values for one entry are separate records, joined by “and”; a condition that tells them apart may be missing. Equal values may be shown once. Inconclusive results and toxic doses are left out.

Test system: P388 leukemia ip, CD2F1 mice, survival T/C
Assay: NCI In Vivo Anticancer Drug Screen. Data for tumor model P388 Leukemia (intraperitoneal) in CD2F1 (CDF1) mice
Conditions: endpoint: median survival time, higher = longer survival
In short: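 Mice carrying the transplanted tumor received test compound or vehicle. Survival was recorded in each group, and the value is the treated-group measurement divided by that of the vehicle-treated control group.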

## CO[C@H]1C[C@](C)(O)Cc2cc3c(c(O)c21)C(=O)c1c(O)cc2c(c1C3=O)O[C@@H]1O[C@@]2(C)[C@H](O)[C@@H](N(C)C)[C@@H]1O
dose: 1.5 mg/kg/injection, schedule: Q01DX005 (iv), vehicle: clinical formulation
  T/C: 115 % of control
dose: 1.56 mg/kg/injection, schedule: Q01DX009 (ip), vehicle: other
  T/C: 156 % of control and 166 % of control
dose: 1.6 mg/kg/injection, schedule: Q01DX009 (oral), vehicle: other
  T/C: 95 % of control
dose: 2.5 mg/kg/injection, schedule: Q01DX005 (ip), vehicle: clinical formulation
  T/C: 158 % of control and 166 % of control
dose: 2.5 mg/kg/injection, schedule: Q01DX005 (ip), vehicle: other
  T/C: 165 % of control
dose: 3.0 mg/kg/injection, schedule: Q01DX005 (iv), vehicle: other
  T/C: 124 % of control
dose: 3.0 mg/kg/injection, schedule: Q01DX009 (ip), vehicle: other
  T/C: 159 % of control
dose: 3.12 mg/kg/injection, schedule: Q01DX009 (ip), vehicle: saline + alcohol
  T/C: 157 % of control
dose: 3.13 mg/kg/injection, schedule: Q01DX009 (oral), vehicle: other
  T/C: 100 % of control and 102 % of control
dose: 3.13 mg/kg/injection, schedule: Q01DX009 (oral), vehicle: saline
  T/C: 103 % of control
dose: 4.5 mg/kg/injection, schedule: Q01DX005 (ip), vehicle: other
  T/C: 156 % of control and 161 % of control
dose: 4.5 mg/kg/injection, schedule: Q01DX005 (iv), vehicle: clinical formulation
  T/C: 160 % of control and 169 % of control
dose: 5.0 mg/kg/injection, schedule: Q01DX005 (ip), vehicle: clinical formulation
  T/C: 185 % of control and 190 % of control
dose: 5.0 mg/kg/injection, schedule: Q01DX005 (ip), vehicle: distilled water + Tween-80
  T/C: 158 % of control and 178 % of control
dose: 5.0 mg/kg/injection, schedule: Q01DX005 (ip), vehicle: other
  T/C: 185 % of control
dose: 6.25 mg/kg/injection, schedule: Q01DX009 (ip), vehicle: saline + alcohol
  T/C: 157 % of control
dose: 6.25 mg/kg/injection, schedule: Q01DX009 (oral), vehicle: other
  T/C: 110 % of control and 113 % of control and 122 % of control
dose: 6.25 mg/kg/injection, schedule: Q04DX003 (ip), vehicle: other
  T/C: 162 % of control and 165 % of control
dose: 6.48 mg/kg/injection, schedule: Q04DX003 (ip), vehicle: other
  T/C: 180 % of control
dose: 6.7 mg/kg/injection, schedule: Q01DX005 (ip), vehicle: other
  T/C: 172 % of control and 176 % of control
dose: 6.7 mg/kg/injection, schedule: Q01DX005 (iv), vehicle: clinical formulation
  T/C: 187 % of control and 197 % of control
dose: 6.7 mg/kg/injection, schedule: Q01DX005 (iv), vehicle: other
  T/C: 161 % of control and 162 % of control
dose: 10.0 mg/kg/injection, schedule: Q01DX005 (ip), vehicle: clinical formulation
  T/C: 235 % of control and 238 % of control
dose: 10.0 mg/kg/injection, schedule: Q01DX005 (ip), vehicle: distilled water + Tween-80
  T/C: 180 % of control and 243 % of control
dose: 10.0 mg/kg/injection, schedule: Q01DX005 (ip), vehicle: other
  T/C: 195 % of control (2×) and 218 % of control
dose: 10.0 mg/kg/injection, schedule: Q01DX005 (iv), vehicle: clinical formulation
  T/C: 208 % of control and 211 % of control
dose: 10.0 mg/kg/injection, schedule: Q01DX005 (iv), vehicle: other
  T/C: 176 % of control and 193 % of control
dose: 10.8 mg/kg/injection, schedule: Q04DX003 (ip), vehicle: other
  T/C: 183 % of control
dose: 12.5 mg/kg/injection, schedule: Q01DX001 (ip), vehicle: other
  T/C: 155 % of control and 157 % of control
dose: 12.5 mg/kg/injection, schedule: Q01DX001 (sc), vehicle: other
  T/C: 103 % of control
dose: 12.5 mg/kg/injection, schedule: Q01DX009 (ip), vehicle: saline + alcohol
  T/C: 178 % of control
dose: 12.5 mg/kg/injection, schedule: Q01DX009 (oral), vehicle: other
  T/C: 158 % of control
dose: 12.5 mg/kg/injection, schedule: Q01DX009 (oral), vehicle: saline
  T/C: 156 % of control
dose: 12.5 mg/kg/injection, schedule: Q04DX003 (ip), vehicle: other
  T/C: 166 % of control and 187 % of control
dose: 15.0 mg/kg/injection, schedule: Q01DX005 (ip), vehicle: other
  T/C: 224 % of control and 237 % of control
dose: 15.0 mg/kg/injection, schedule: Q01DX005 (iv), vehicle: clinical formulation
  T/C: 215 % of control and 224 % of control
dose: 15.0 mg/kg/injection, schedule: Q01DX005 (iv), vehicle: other
  T/C: 196 % of control
dose: 15.0 mg/kg/injection, schedule: Q01DX009 (oral), vehicle: other
  T/C: 197 % of control
dose: 18.0 mg/kg/injection, schedule: Q04DX003 (ip), vehicle: other
  T/C: 240 % of control
dose: 20.0 mg/kg/injection, schedule: Q01DX005 (ip), vehicle: clinical formulation
  T/C: 117 % of control and 284 % of control
dose: 20.0 mg/kg/injection, schedule: Q01DX005 (ip), vehicle: distilled water + Tween-80
  T/C: 270 % of control and 280 % of control
dose: 20.0 mg/kg/injection, schedule: Q01DX005 (ip), vehicle: other
  T/C: 284 % of control
dose: 22.0 mg/kg/injection, schedule: Q01DX009 (oral), vehicle: other
  T/C: 231 % of control
dose: 22.5 mg/kg/injection, schedule: Q01DX005 (ip), vehicle: other
  T/C: 346 % of control
dose: 25.0 mg/kg/injection, schedule: Q01DX001 (ip), vehicle: other
  T/C: 150 % of control and 160 % of control
dose: 25.0 mg/kg/injection, schedule: Q01DX001 (sc), vehicle: other
  T/C: 106 % of control and 112 % of control
dose: 25.0 mg/kg/injection, schedule: Q01DX009 (ip), vehicle: saline + alcohol
  T/C: 231 % of control
dose: 25.0 mg/kg/injection, schedule: Q01DX009 (oral), vehicle: other
  T/C: 111 % of control and 211 % of control and 96 % of control
dose: 25.0 mg/kg/injection, schedule: Q01DX009 (oral), vehicle: saline
  T/C: 229 % of control
dose: 25.0 mg/kg/injection, schedule: Q04DX003 (ip), vehicle: other
  T/C: 192 % of control and 193 % of control
dose: 30.0 mg/kg/injection, schedule: Q04DX003 (ip), vehicle: other
  T/C: 247 % of control
dose: 50.0 mg/kg/injection, schedule: Q01DX001 (ip), vehicle: other
  T/C: 157 % of control and 197 % of control
dose: 50.0 mg/kg/injection, schedule: Q01DX001 (sc), vehicle: other
  T/C: 100 % of control and 122 % of control
dose: 50.0 mg/kg/injection, schedule: Q01DX009 (oral), vehicle: other
  T/C: 101 % of control and 103 % of control and 91 % of control
dose: 50.0 mg/kg/injection, schedule: Q01DX009 (oral), vehicle: saline
  T/C: 91 % of control
dose: 50.0 mg/kg/injection, schedule: Q04DX003 (ip), vehicle: other
  T/C: 182 % of control and 252 % of control
dose: 100.0 mg/kg/injection, schedule: Q01DX001 (ip), vehicle: other
  T/C: 169 % of control
dose: 100.0 mg/kg/injection, schedule: Q01DX001 (sc), vehicle: other
  T/C: 105 % of control
dose: 200.0 mg/kg/injection, schedule: Q01DX001 (ip), vehicle: other
  T/C: 175 % of control
dose: 200.0 mg/kg/injection, schedule: Q04DX003 (ip), vehicle: other
  T/C: 95 % of control

## Clc1ccc2nc(C(Cl)(Cl)Cl)nc(NCCN3CCCCC3)c2c1
dose: 50.0 mg/kg/injection, schedule: Q01DX009 (ip), vehicle: saline with Tween-80
  T/C: 100 % of control
dose: 100.0 mg/kg/injection, schedule: Q01DX009 (ip), vehicle: saline with Tween-80
  T/C: 100 % of control
dose: 200.0 mg/kg/injection, schedule: Q01DX009 (ip), vehicle: saline with Tween-80
  T/C: 90 % of control

## O=Cc1ccccc1
dose: 12.5 mg/kg/injection, schedule: Q01DX009 (ip), vehicle: Klucel (hydroxypropylcellulose) (HPC)
  T/C: 98 % of control
dose: 25.0 mg/kg/injection, schedule: Q01DX009 (ip), vehicle: Klucel (hydroxypropylcellulose) (HPC)
  T/C: 99 % of control and 100 % of control and 115 % of control
dose: 50.0 mg/kg/injection, schedule: Q01DX009 (ip), vehicle: Klucel (hydroxypropylcellulose) (HPC)
  T/C: 100 % of control and 103 % of control and 107 % of control
dose: 100.0 mg/kg/injection, schedule: Q01DX009 (ip), vehicle: Klucel (hydroxypropylcellulose) (HPC)
  T/C: 100 % of control and 97 % of control and 98 % of control
dose: 200.0 mg/kg/injection, schedule: Q01DX009 (ip), vehicle: Klucel (hydroxypropylcellulose) (HPC)
  T/C: 100 % of control and 109 % of control and 95 % of control
dose: 0.25 % in 0.5 ml injection vol, schedule: Q01DX009 (ip), vehicle: water
  T/C: 99 % of control
dose: 400.0 mg/kg/injection, schedule: Q01DX009 (ip), vehicle: Klucel (hydroxypropylcellulose) (HPC)
  T/C: 93 % of control and 98 % of control
dose: 0.5 % in 0.5 ml injection vol, schedule: Q01DX009 (ip), vehicle: water
  T/C: 100 % of control
dose: 1.0 % in 0.5 ml injection vol, schedule: Q01DX009 (ip), vehicle: water
  T/C: 100 % of control
